Measurements from patent US20110009628A1, “Compounds and Compositions for Modulating Lipid Levels and Methods of Preparing Same” (priority 2009, published 2011).

Key:
Assay type in all cases: cell-based, human
[1] = system: PCSK9 mRNA expression in HepG2 cells; assay: PCSK9 mRNA expression in HepG2 cells, quantitative real-time RT-PCR (Example 12); details: 24 hours
Procedure: (§1) The effects of compounds on the mRNA expressions of LDLR and PCSK9 were examined using quantitative real-time RT-PCR assays. HepG2 cells were treated with various compounds at 10 and 40 uM concentrations for 24 hours. Total RNA was isolated and […] was used to generate cDNA in a reaction containing random primers and M-MLV at 37° C. for 1 h in a volume of 25 μL. Real-time PCR was performed on the cDNA using MCEP REALPLEX 2 SYSTEM (Eppendorf) and Universal MasterMix (Applied Biosystems). Human LDLR, PCSK9, and GAPDH Pre-Developed TaqMan Assay Reagents (Applied Biosystems) were used to assess the levels of mRNA expressions in HepG2. The levels of LDLR and PCSK9 mRNA were normalized to that of GAPDH. Each RNA samples was assayed in duplicate. The fold activity was calculated by dividing mRNA abundance in compound treated cells with that of control.

[2] = system: LDL ligand uptake activity in HepG2 cells; assay: DiI-LDL uptake in HepG2 cells (Example 12)
Procedure: The combined beneficial effects of these novel compounds on elevation of LDLR mRNA levels likely through the mechanism of mRNA stabilization and their inhibitory activity towards PCSK9, the secreted protease that degrades LDLR protein, result in strong increases in LDL ligand uptake activity through increased receptor surface abundance. […] Briefly, HepG2 cells (2×10^5 cells/well) in 24-well culture plates were treated with various compounds at 10 and 40 uM concentrations for 20 hours. The fluorescent 1.1′-dioctadecyl-3,3,3′,3′-tetramethylindocarbocyanin perchlorate (DiI-LDL) (Biomedical Technologies, Stoughton, Mass.) at a concentration of 2 μg/ml was added to cells at the end of treatment. After 4 hours, the medium was removed; cells were washed with cold PBS, and were examined immediately under a fluorescent microscope (Nikon) at 200× amplification. The fluorescent intensity in compound-treated cells was compared to that in untreated control cells. […]

[3] = system: LDLR mRNA expression in HepG2 cells; assay: LDLR mRNA expression in HepG2 cells, quantitative real-time RT-PCR (Example 12); details: 24 hours; for fold induction at 10 µM / fold induction at 40 µM: Homo sapiens; for fold induction at 10 µM: read-out: Activity on LDLR mRNA at 10 uM (fold of control); for fold induction at 40 µM: read-out: Activity on LDLR mRNA at 40 uM (fold of control)
Procedure: as §1

[4] = system: LDLR mRNA expression in HepG2 cells; assay: LDLR mRNA expression in HepG2 cells, quantitative real-time RT-PCR (Example 7); details: dose less than or equal to 10 μM, 24 hours
Procedure: In yet another experiment, HepG2 cells were treated with various compounds for 24 hours at the indicated doses. Total RNA was isolated and 2 μg was used to generate cDNA in a reaction containing random primers and M-MLV at 37° C. for 1 hour in a volume of 25 μL. Real-time PCR was performed on the cDNA using MCEP REALPLEX 2 SYSTEM (Eppendorf) and Universal MasterMix (Applied Biosystems). Human LDLR and GAPDH Pre-Developed TaqMan Assay Reagents (Applied Biosystems) were used to assess the levels of mRNA expressions in HepG2. The levels of LDLR mRNA were normalized to that of GAPDH. Each RNA samples was assayed in triplicate. The abundance of LDLR mRNA in untreated cells was defined as 1, and the amounts of LDLR mRNA from compound-treated cells were plotted relative to that value in FIG. 2B. The data shown are mean±s.d.
Activities of some compounds of Formulas I, II and EE on LDLR mRNA expression were determined. HepG2 cells were treated with new compounds individually at a dose less than or equal to 10 μM for 24 hours. […] In these experiments, berberine chloride was included for comparison.

[5] = 40 uM, 20 hours (second symbol of cell)
[6] = 10 uM, 20 hours (first symbol of cell)

SMILES: COc1ccc2c(c1OS(=O)(=O)c1ccccc1)CN1CCc3ccccc3C1C2 (centres unmarked) [Compound 134, 10-Methoxy-5,6,7,8,13,13a-hexahydroisoquinolino[2,1-b]isoquinolin-9-yl benzenesulfonate]
- PCSK9 mRNA level at 10 uM (fold of control) [1]: 1.25 ± 0.03 fold of control
- Activity on PCSK9 mRNA reduction at 40 uM (fold of control) [1]: 0.86 ± 0.02 fold of control
- Activity in LDL uptake (relative to control) [2, 5]: +
- fold induction at 10 µM ([3]; 10 uM): 1.41 ± 0.07
- fold induction at 40 µM ([3]; 40 uM): 6.23 ± 0.64

SMILES: COc1ccc2c(c1)CCN1Cc3c(ccc(OC)c3OS(=O)(=O)c3ccccc3)C(C)C21 (centres unmarked) [Compound 140, 3,10-Dimethoxy-13-methyl-5,6,7,8,13,13a-hexahydro isoquinolino[2,1-b]isoquinolin-9-yl benzenesulfonate]
- PCSK9 mRNA level at 10 uM (fold of control) [1]: 0.43 ± 0.08 fold of control
- Activity on PCSK9 mRNA reduction at 40 uM (fold of control) [1]: 0.51 ± 0.08 fold of control
- Activity in LDL uptake (relative to control) [2, 6]: ++/++
- Activity in LDL uptake (relative to control) [2, 5]: ++/++
- fold induction at 10 µM ([3]; 10 uM): 6.65 ± 0.68
- fold induction at 40 µM ([3]; 40 uM): 8.6 ± 2

SMILES: COc1cc2c(cc1C(=O)NCCO)C1Cc3ccc(OC)c(OS(=O)(=O)c4ccccc4)c3CN1CC2 (centres unmarked) [Compound 137, 2-[N-(2-hydroxyethyl)carbamoyl]-3,10-dimethoxy-5,6,7,8,13,13a-hexahydroisoquinolino[2,1-b]isoquinolin-9-yl benzenesulfonate]
- PCSK9 mRNA level at 10 uM (fold of control) [1]: 0.45 ± 0.06 fold of control
- Activity on PCSK9 mRNA reduction at 40 uM (fold of control) [1]: 0.34 ± 0.00 fold of control
- Activity in LDL uptake (relative to control) [2, 6]: +
- Activity in LDL uptake (relative to control) [2, 5]: +++
- fold induction at 10 µM ([3]; 10 uM): 1.61 ± 0.19
- fold induction at 40 µM ([3]; 40 uM): 2.66 ± 0.04

SMILES: COc1ccc2c(c1)CCN1Cc3c(ccc(OC)c3OS(=O)(=O)c3cccc(F)c3)CC21 (centres unmarked) [Compound 128, 3,10-Dimethoxy-5,6,7,8,13,13a-hexahydroisoquinolino[2,1-b]isoquinolin-9-yl 3-fluorobenzenesulfonate]
- PCSK9 mRNA level at 10 uM (fold of control) [1]: 0.96 ± 0.00 fold of control
- Activity on PCSK9 mRNA reduction at 40 uM (fold of control) [1]: 0.86 ± 0.029 fold of control
- Activity in LDL uptake (relative to control) [2, 6]: +++/+++
- Activity in LDL uptake (relative to control) [2, 5]: +++/+++
- fold induction at 10 µM ([3]; 10 uM): 7.52 ± 0.26
- fold induction at 40 µM ([3]; 40 uM): 13.4 ± 0.46

SMILES: COc1cc2c(cc1C(=O)N(C)C)C1Cc3ccc(OC)c(OS(=O)(=O)c4ccccc4)c3CN1CC2 (centres unmarked) [Compound 136, 2-(N,N-dimethylcarbamoyl)-3,10-dimethoxy-5,6,7,8,13,13a-hexahydroisoquinolino[2,1-b]isoquinolin-9-yl benzenesulfonate]
- PCSK9 mRNA level at 10 uM (fold of control) [1]: 0.48 ± 0.03 fold of control
- Activity on PCSK9 mRNA reduction at 40 uM (fold of control) [1]: 0.62 ± 0.02 fold of control
- Activity in LDL uptake (relative to control) [2, 6]: +
- Activity in LDL uptake (relative to control) [2, 5]: ++
- fold induction at 10 µM ([3]; 10 uM): 0.91 ± 0.05
- fold induction at 40 µM ([3]; 40 uM): 1.92 ± 0.32

SMILES: COc1cc2c(cc1CO)C1Cc3ccc(OC)c(OS(=O)(=O)c4ccccc4)c3CN1CC2 (centres unmarked) [Compound 132, 2-(Hydroxymethyl)-3,10-dimethoxy-5,6,7,8,13,13a-hexahydro isoquinolino[2,1-b]isoquinolin-9-yl benzenesulfonate]
- PCSK9 mRNA level at 10 uM (fold of control) [1]: 1.85 ± 0.12 fold of control
- Activity on PCSK9 mRNA reduction at 40 uM (fold of control) [1]: 0.73 ± 0.15 fold of control
- Activity in LDL uptake (relative to control) [2, 6]: ++
- Activity in LDL uptake (relative to control) [2, 5]: +
- fold induction at 10 µM ([3]; 10 uM): 2.33 ± 0.04
- fold induction at 40 µM ([3]; 40 uM): 6.62 ± 0.9

SMILES: COc1ccc2c(c1)CCN1Cc3c(OS(=O)(=O)c4cccc(F)c4)ccc(Br)c3CC21 (centres unmarked) [Compound 149, 12-bromo-3-methoxy-5,6,7,8,13,13a-hexahydroisoquinolino[2,1-b]isoquinolin-9-yl 3-fluorobenzenesulfonate]
- Activity in LDL uptake (relative to control) [2, 6]: +/+
- Activity in LDL uptake (relative to control) [2, 5]: +/+

SMILES: COc1ccc2c(c1OS(=O)(=O)c1cccc(F)c1)CN1CCc3cc(C)ccc3C1C2 (centres unmarked) [Compound 130, 10-Methoxy-3-methyl-5,6,7,8,13,13a-hexahydroisoquinolino[2,1-b]isoquinolin-9-yl 3-fluorobenzenesulfonate]
- PCSK9 mRNA level at 10 uM (fold of control) [1]: 2.11 ± 0.11 fold of control
- Activity on PCSK9 mRNA reduction at 40 uM (fold of control) [1]: 0.84 ± 0.12 fold of control
- Activity in LDL uptake (relative to control) [2, 6]: ++
- Activity in LDL uptake (relative to control) [2, 5]: +
- fold induction at 10 µM ([3]; 10 uM): 4.29 ± 0.65
- fold induction at 40 µM ([3]; 40 uM): 9 ± 1.49

SMILES: COc1ccc2c(c1)CCN1Cc3c(O)cccc3CC21 (centres unmarked) [Compound 151, 3-methoxy-5,6,7,8,13,13a-hexahydroisoquinolino[2,1-b]isoquinolin-9-ol]
- Activity in LDL uptake (relative to control) [2, 5]: +

SMILES: COc1ccc2c(c1OS(=O)(=O)c1ccccc1)CN1CCc3cc4c(cc3C1C2)OCCO4 (centres unmarked) [Compound 115, 11-Methoxy-6,7,8,9,14,14a-hexahydro-2H,3H-1,4-dioxano[5,6-g]isoquinolino[3,2-a]isoquinolin-10-yl benzenesulfonate]
- Activity in LDL uptake (relative to control) [2, 5]: +++
- Activity on LDLR mRNA at 10 uM (fold of control) ([3]; 10 uM): 0.51 ± 0.11 fold of control
- Activity on LDLR mRNA at 40 uM (fold of control) ([3]; 40 uM): 2.65 ± 0.06 fold of control

SMILES: COc1ccc2c(c1)CCN1Cc3c(ccc(OC)c3OS(=O)(=O)c3ccccc3)CC21 (centres unmarked) [Compound 116, 3,10-Dimethoxy-5,6,7,8,13,13a-hexahydroisoquinolino[2,1-b]isoquinolin-9-yl benzenesulfonate]
- Activity in LDL uptake (relative to control) [2, 6]: +++/+++
- Activity in LDL uptake (relative to control) [2, 5]: +++/+++
- fold induction at 10 µM ([3]; 10 uM): 1.41 ± 0.04
- fold induction at 40 µM ([3]; 40 uM): 7.19 ± 1.29

SMILES: COc1cc2c(cc1OCC(=O)O)C1Cc3ccc(OC)c(OS(=O)(=O)c4ccccc4)c3CN1CC2 (centres unmarked) [Compound 144, 2-[3,10-dimethoxy-9-(phenylsulfonyloxy)-5,6,7,8,13,13a-hexahydroisoquinolino[3,2-a]isoquinolin-2-yloxy]acetic acid]
- PCSK9 mRNA level at 10 uM (fold of control) [1]: 0.99 ± 0.09 fold of control
- Activity on PCSK9 mRNA reduction at 40 uM (fold of control) [1]: 1.84 ± 0.15 fold of control
- fold induction at 10 µM ([3]; 10 uM): 1.02 ± 0.09
- fold induction at 40 µM ([3]; 40 uM): 2.69 ± 0.31

SMILES: COc1ccc2c(c1)CCN1Cc3c(cccc3OS(=O)(=O)c3cccc(F)c3)CC21 (centres unmarked) [Compound 150, 3-methoxy-5,6,7,8,13,13a-hexahydroisoquinolino[2,1-b]isoquinolin-9-yl 3-fluorobenzenesulfonate]
- Activity in LDL uptake (relative to control) [2, 6]: +
- Activity in LDL uptake (relative to control) [2, 5]: ++

SMILES: CCOC(=O)Oc1c(OC)ccc2c1CN1CCc3cc4c(cc3C1C2)OCO4 (centres unmarked) [Compound 48, 10-methoxy-5,6,7,8,13,13a-hexahydro-2H-1,3-dioxolano[4,5-g]isoquinolino[3,2-a]isoquinolin-9-yl ethoxyformate]
- Activity on LDLR mRNA expression (Fold of control) [4]: 1.45 ± 0.15 Fold of control

SMILES: COc1ccc2c(c1OS(=O)(=O)c1ccccc1)CN1CCc3cc(C)ccc3C1C2 (centres unmarked) [Compound 121, 10-Methoxy-3-methyl-5,6,7,8,13,13a-hexahydroisoquinolino[2,1-b]isoquinolin-9-yl benzenesulfonate]
- Activity in LDL uptake (relative to control) [2, 6]: +++
- Activity in LDL uptake (relative to control) [2, 5]: +
- fold induction at 10 µM ([3]; 10 uM): 3.56 ± 0.03
- fold induction at 40 µM ([3]; 40 uM): 3.43 ± 0.81
